# Measurements reported in patent US6416987B1, “Mutants of thymidylate synthase and uses thereof” (Sloan Kettering Institute for Cancer Research, priority 1997, dated 2002).
# Like-named read-outs stand apart in the source and are kept apart here.
# Key:
# [1] = system: TS-negative FSthy21 cells transfected with F225W mutant human TS cDNA; format: cell-based, mouse
# [2] = system: TS-negative FSthy21 cells transfected with I108F mutant human TS cDNA; format: cell-based, mouse; conditions: FdUrd; 1108F/clone (2) vs wild-type clone (1)
# [3] = system: TS-negative FSthy21 cells transfected with I108A mutant human TS cDNA; experiment: Growth inhibition assay (alamar Blue), I108A transfectants; conditions: for Ratio of IC50 values for mutant/wt cells: FdUrd
# Method: (§2) The mouse TS-negative FSthy21 cells were used as the host for DNA transfections. This cell line, which is a TS-deficient derivative of mouse FM3A cells, was routinely maintained in MEM medium supplemented with 10% fetal bovine serum and 10×10^−5 M thymidine. Transfections were performed by DOTAP, using 10 μg of DNA/culture. Four days after transfection, cells were placed in selective medium, which contain no thymidine and reduced folate. Colonies having the ability to grow in the absence of thymidine were pooled and propagated as a mass culture.
# (§3) Logarithmically growing suspension mouse TS-20 negative FSthy21 cells transfected with wild-type or variant human TS cDNA were seeded in 96-well plates at 1,000 cells/well in 180 μl of complete medium. […] Cell viability was measured by the alamar Blue™ assay. This method incorporates an oxidation-reduction (REDOX) indicator that both fluoresces and changes color in response to chemical reduction of growth medium resulting from cell growth. To above 96-well cultured cells, 25 μl of Alamar Blue (Alamar, Sacramento, Calif.) (10% of incubation volume) were added according to the manufacturer's instructions. The culture 96-well plates were then incubated at 37° C. for 4 hours. Viable cells induce chemical reduction of the media which results in a change in REDOX color from blue to red. The intensity of red color (and fluoresces) is proportional to the viable cells. After incubation, fluorescence is was read at 530-560 nm excitation wavelength and 590 nm emission wavelength by an automated plate reader (model EL340; Bio-Tek). Drug concentrations needed to reduce cell growth by 50% (IC50 values) were determined graphically by plotting of cell growth verses inhibitor concentration.
# (§4) The effect of three antifolates and FdUrd on the growth characteristics of transfectants that stably express various TS proteins was evaluated by cytotoxicity studies. Cell growth was measured by the alamar blue assay. IC50 values were calculated as the concentration of inhibitor required to inhibit growth by 50% compared to wild-type transfected cells grown under identical conditions.
# [4] = target: TS-negative FSthy21 cells transfected with I108A mutant human TS cDNA (Homo sapiens, UniProt P04818, P2L/I108A, cells depend on it); experiment: as above; conditions: read-out: IC50 values, FdUrd, 7-day exposure
# Method: as §2, §3, §4
# [5] = system: TS-negative FSthy21 cells transfected with L221I mutant human TS cDNA; format: cell-based, mouse; conditions: FdUrd; L221I/clone (1) vs wild-type clone (1)
# [6] = system: TS-negative FSthy21 cells transfected with F225Y mutant human TS cDNA; format: cell-based, mouse; conditions: FdUrd; F225Y/clone (1) vs wild-type clone (1)
# [7] = system: TS-negative FSthy21 cells transfected with D49G mutant human TS cDNA; format: cell-based, mouse
# [8] = system: TS-negative FSthy21 cells transfected with K47E mutant human TS cDNA; format: cell-based, mouse; conditions: FdUrd; K47E/clone (2) vs wild-type clone (1)
# [9] = system: TS-negative FSthy21 cells transfected with L221S mutant human TS cDNA; format: cell-based, mouse; conditions: FdUrd; L221S/clone (2) vs wild-type clone (1)
# [10] = target: TS-negative FSthy21 cells transfected with wild-type human TS cDNA (Homo sapiens, UniProt P04818, P2L, cells depend on it); experiment: Growth inhibition assay (alamar Blue), TS-negative cells transfected with wild-type human TS cDNA; format: cell-based, mouse; conditions: FdUrd, 7-day exposure, read-out: IC50 values
# [11] = system: TS-negative FSthy21 cells transfected with L221A mutant human TS cDNA; format: cell-based, mouse; conditions: FdUrd; L221A/clone (2) vs wild-type clone (1)
# [12] = system: TS-negative FSthy21 cells transfected with G52S mutant human TS cDNA; format: cell-based, mouse
# [13] = system: TS-negative FSthy21 cells transfected with F225L mutant human TS cDNA; format: cell-based, mouse; conditions: FdUrd; F225L/clone (3) vs wild-type clone (1)
# [14] = system: human colon tumor cell line with Tyr33 to His33 TS; conditions: cited from earlier work
# [15] = system: murine bone marrow cells infected with G52S mut-TS vector; experiment: CFU-GM assay, marrow infected with G52S mut-TS retroviral vector; format: cell-based; conditions: 10 days
# From the text: (§1) The following tables 15-17 summarize additional proof that these mutants confer resistance to chemotherapeutic agents by increasing the number of drug resistant CFU-GM colonies formed by murine bone marrow cells infected with retroviral vectors containing these mutant TS cDNAs.
# [16] = system: murine bone marrow cells infected with Wt TS vector; experiment: CFU-GM assay, marrow infected with Wt TS retroviral vector; format: cell-based; conditions: 10 days
# Normal Bone Marrow cells = experiment: CFU-GM assay, Normal Bone Marrow (retroviral vector study); format: cell-based, murine; conditions: 10 days
# From the text: as §1
# Sequence of TS-negative FSthy21 cells transfected with wild-type human TS cDNA (P04818 whole entry P2L): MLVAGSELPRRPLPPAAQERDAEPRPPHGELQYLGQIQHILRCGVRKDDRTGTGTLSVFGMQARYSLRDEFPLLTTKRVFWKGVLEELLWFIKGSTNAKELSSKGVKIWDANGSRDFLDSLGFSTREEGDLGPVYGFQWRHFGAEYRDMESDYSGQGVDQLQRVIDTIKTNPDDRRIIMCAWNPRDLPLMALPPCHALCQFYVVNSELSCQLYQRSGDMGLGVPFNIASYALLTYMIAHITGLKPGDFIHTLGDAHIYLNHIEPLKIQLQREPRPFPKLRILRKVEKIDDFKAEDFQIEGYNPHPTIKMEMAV
# Sequence of TS-negative FSthy21 cells transfected with I108A mutant human TS cDNA (Homo sapiens, UniProt P04818, P2L/I108A, cells depend on it) (P04818 whole entry P2L/I108A): as the sequence (P04818 whole entry P2L) above, with I108A counted along it
smiles,measurement,setting,value
"O=c1[nH]c(=O)n([C@H]2C[C@H](O)[C@@H](CO)O2)cc1F [FdUrd, 5-fluoro-2′-deoxyuridine]","resistance, IC50 values greater than wild-type transfectants",[1]; F225W transfectants vs wild-type transfectants,25 fold
same,Ratio of IC50 values for mutant/wt cells,"[1]; FdUrd, F225W/clone (2) vs wild-type clone (1)",25(1)
same,Ratio of IC50 values for mutant/wt cells,[2],6.1(1)
same,Ratio of IC50 values for mutant/wt cells,[3]; 1108A/clone (1) vs wild-type clone (2),16(2)^2
same,Ratio of IC50 values for mutant/wt cells,[3]; 1108A/clone (2) vs wild-type clone (2),12(2)
same,Ratio of IC50 values for mutant/wt cells,[3]; 1108A/clone (3) vs wild-type clone (2),15(2)
same,"resistance, IC50 values greater than wild-type transfectants",[3]; I108A transfectants vs wild-type transfectants,12 fold
same,GI50,[4]; 1108A/clone (1) [175-1],1.4 ± 0.19 nM
same,GI50,[4]; 1108A/clone (2) [175-2],1.05 ± 0.18 nM
same,GI50,[4]; 1108A/clone (3) [175-3],1.37 ± 0.25 nM
same,Ratio of IC50 values for mutant/wt cells,[5],13(1)
same,Ratio of IC50 values for mutant/wt cells,[6],1.0(1)
same,"resistance, IC50 values greater than wild-type transfectants",[7]; D49G transfectants vs wild-type transfectants,26 fold
same,Ratio of IC50 values for mutant/wt cells,"[7]; FdUrd, D49G/clone (1) vs wild-type clone (1)",26(1)
same,Ratio of IC50 values for mutant/wt cells,[8],5.7(1)
same,Ratio of IC50 values for mutant/wt cells,[9],1.2(1)
same,GI50,[10]; wild-type/clone (1) [161-1],0.029 ± 0.0003 nM
same,GI50,[10]; wild-type/clone (2) [161-2],0.0896 ± 0.0062 nM
same,GI50,[10]; wild-type/clone (3) [161-3],0.0286 ± 0.0002 nM
same,Ratio of IC50 values for mutant/wt cells,[11],4.0(1)
same,Ratio of IC50 values for mutant/wt cells,"[12]; FdUrd, G52S/clone (3) vs wild-type clone (1)",97(1)
same,"resistance, IC50 values greater than wild-type transfectants",[12]; G52S transfectants vs wild-type transfectants,97 fold
same,Ratio of IC50 values for mutant/wt cells,[13],5.7(1)
"O=c1[nH]c(=O)n([C@H]2C[C@H](O)[C@@H](COP(=O)(O)O)O2)cc1F [FdUMP, 5-fluoro-2-deoxyuridylate]",resistance conferred by Tyr33 to His33 substitution,[14],3- to 4 fold
"O=c1[nH]cc(F)c(=O)[nH]1 [5-FU, 5-fluorouracil]",CFU-C,[15]; 10^−5 M 5-FU,10
same,"CFU-C, % in parentheses",[15]; 10^−5 M 5-FU,6%
same,CFU-C,[15]; 10^−6 M 5-FU,117
same,"CFU-C, % in parentheses",[15]; 10^−6 M 5-FU,72%
same,HPPCFU-C,[15]; 10^−6 M 5-FU,21
same,"HPPCFU-C, % in parentheses",[15]; 10^−6 M 5-FU,40%
same,CFU-C,[16]; 10^−5 M 5-FU,0
same,CFU-C,[16]; 10^−6 M 5-FU,91
same,"CFU-C, % in parentheses",[16]; 10^−6 M 5-FU,54%
same,HPPCFU-C,[16]; 10^−6 M 5-FU,6
same,"HPPCFU-C, % in parentheses",[16]; 10^−6 M 5-FU,14%
same,CFU-C,Normal Bone Marrow cells; 10^−5 M 5-FU,0
same,CFU-C,Normal Bone Marrow cells; 10^−6 M 5-FU,16
same,"CFU-C, % in parentheses",Normal Bone Marrow cells; 10^−6 M 5-FU,10%
same,HPPCFU-C,Normal Bone Marrow cells; 10^−6 M 5-FU,0
